The first assay has as its system human TH17 cells. As to the kind of experiment: Inhibition of IL-17 release from human TH17 cells. Format: cell-based. The conditions noted are these: 96 h; isolated human TH17 cells, 4 days culture, IL-17A by HTRF; read-out: pIC50 IL-17 release (converted). The source says:
Inhibition of IL-17 Release from Human TH17 Cells (IL-17 Release)
This test is designed to screen compounds for their inhibitory effect on the release of IL-17 from isolated and cultured human TH17 cells.
Peripheral blood mononuclear cells (PBMC) were isolated from heparin treated human whole blood fromhealthy donors by density gradient centrifugation. TH17 cells (CD4+CXCR3-CCR6+) were enriched using a human TH17 Cell Enrichment Kit (Stemcell Technologies) according to the manufacturer's protocol. […] On day 4 supernatants were collected and IL-17A was measured using a Human IL-17 HTRF Assay kit (Cisbio Bioassays) according to the manufacturer's protocol. […] Results
(Time-resolved FRET reads energy transfer from a long-lived donor to a nearby acceptor.)
Regarding `COC1(C(=O)N2Cc3cc(S(C)(=O)=O)ccc3C2C(=O)Nc2ccc(C(O)(C(F)(F)F)C(F)(F)F)cc2)CCC1` (centres unmarked) [Example 448, N-[4-(1,1,1,3,3,3-Hexafluoro-2-hydroxypropan-2-yl)phenyl]-2-[(1-methoxycyclobutyl)carbonyl]-5-(methylsulfonyl)-2,3-dihydro-1H-isoindole-1-carboxamide], the IC50 is 79.4 nM.

The same assay, now with this note: Homo sapiens, 96 h, isolated human TH17 cells, 4 days culture, IL-17A by HTRF; read-out: pIC50 IL-17 release (converted).
In the case of `CS(=O)(=O)c1ccc2c(c1)CN(C(=O)CCF)C2C(=O)Nc1ccc(C(O)(C(F)(F)F)C(F)(F)F)cc1` (centres unmarked) [Example 415, 2-(3-Fluoropropanoyl)-N-[4-(1,1,1,3,3,3-hexafluoro-2-hydroxypropan-2-yl)phenyl]-5-(methylsulfonyl)-2,3-dihydro-1H-isoindole-1-carboxamide], the IC50 is 31.6 nM.
As to `CCOC1(C(=O)N2Cc3cc(S(C)(=O)=O)ccc3C2C(=O)Nc2ccc(C(O)(C(F)(F)F)C(F)(F)F)cc2)CC1` (centres unmarked) [Example 416, 2-[(1-Ethoxycyclopropyl)carbonyl]-N-[4-(1,1,1,3,3,3-hexafluoro-2-hydroxypropan-2-yl)phenyl]-5-(methylsulfonyl)-2,3-dihydro-1H-isoindole-1-carboxamide], the IC50 is 31.6 nM.
On to `COC1(CC(=O)N2Cc3cc(S(C)(=O)=O)ccc3C2C(=O)Nc2ccc(C(O)(C(F)(F)F)C(F)(F)F)cc2)CC1` (centres unmarked) [Example 417, N-[4-(1,1,1,3,3,3-Hexafluoro-2-hydroxypropan-2-yl)phenyl]-2-[(1-methoxycyclopropyl)acetyl]-5-(methylsulfonyl)-2,3-dihydro-1H-isoindole-1-carboxamide], for which the IC50 is 31.6 nM.
Still for that read-out and setting: as for `C[C@@H](F)CC(=O)N1Cc2cc(S(C)(=O)=O)ccc2C1C(=O)Nc1ccc(C(O)(C(F)(F)F)C(F)(F)F)cc1` (stereo partly drawn) [Example 418, 2-[(3R)-3-Fluorobutanoyl]-N-[4-(1,1,1,3,3,3-hexafluoro-2-hydroxypropan-2-yl)phenyl]-5-(methylsulfonyl)-2,3-dihydro-1H-isoindole-1-carboxamide], the figure is 39.8 nM; as for `COC(C)(C)C(=O)N1Cc2cc(S(C)(=O)=O)ccc2C1C(=O)Nc1ccc(C(O)(C(F)(F)F)C(F)(F)F)cc1` (centres unmarked) [Example 419, N-[4-(1,1,1,3,3,3-Hexafluoro-2-hydroxypropan-2-yl)phenyl]-2-(2-methoxy-2-methylpropanoyl)-5-(methylsulfonyl)-2,3-dihydro-1H-isoindole-1-carboxamide], 50.1 nM.
Consider `CC(C)OC(=O)N1Cc2cc(S(C)(=O)=O)ccc2C1C(=O)Nc1ccc(C(O)(C(F)(F)F)C(F)(F)F)cc1` (centres unmarked) [Example 420, Propan-2-yl 1-{[4-(1,1,1,3,3,3-hexafluoro-2-hydroxypropan-2-yl)phenyl]carbamoyl}-5-(methylsulfonyl)-1,3-dihydro-2H-isoindole-2-carboxylate], for which the IC50 is 79.4 nM.
As to `CC(C)(O)CC(=O)N1Cc2cc(S(C)(=O)=O)ccc2C1C(=O)Nc1ccc(C(O)(C(F)(F)F)C(F)(F)F)cc1` (centres unmarked) [Example 421, N-[4-(1,1,1,3,3,3-Hexafluoro-2-hydroxypropan-2-yl)phenyl]-2-(3-hydroxy-3-methylbutanoyl)-5-(methylsulfonyl)-2,3-dihydro-1H-isoindole-1-carboxamide], the IC50 is 100 nM.
In the case of `CC(CO)C(=O)N1Cc2cc(S(C)(=O)=O)ccc2C1C(=O)Nc1ccc(C(O)(C(F)(F)F)C(F)(F)F)cc1` (centres unmarked) [Example 425, N-[4-(1,1,1,3,3,3-Hexafluoro-2-hydroxypropan-2-yl)phenyl]-2-(3-hydroxy-2-methylpropanoyl)-5-(methylsulfonyl)-2,3-dihydro-1H-isoindole-1-carboxamide], the IC50 is 79.4 nM.
On the same count and under the same terms, for `CS(=O)(=O)c1ccc2c(c1)CN(C(=O)CC1(C#N)CC1)C2C(=O)Nc1ccc(C(O)(C(F)(F)F)C(F)(F)F)cc1` (centres unmarked) [Example 427, 2-[(1-Cyanocyclopropyl)acetyl]-N-[4-(1,1,1,3,3,3-hexafluoro-2-hydroxypropan-2-yl)phenyl]-5-(methylsulfonyl)-2,3-dihydro-1H-isoindole-1-carboxamide] the value was 100 nM.
For `CS(=O)(=O)c1ccc2c(c1)CN(C(=O)C1CC(O)C1)C2C(=O)Nc1ccc(C(O)(C(F)(F)F)C(F)(F)F)cc1` (stereo not drawn) [Example 430, N-[4-(1,1,1,3,3,3-Hexafluoro-2-hydroxypropan-2-yl)phenyl]-2-[(trans-3-hydroxycyclobutyl)carbonyl]-5-(methylsulfonyl)-2,3-dihydro-1H-isoindole-1-carboxamide], the IC50 was 126 nM.
Take `C[C@H](O)CC(=O)N1Cc2cc(S(C)(=O)=O)ccc2C1C(=O)Nc1ccc(C(O)(C(F)(F)F)C(F)(F)F)cc1` (stereo partly drawn) [Example 433, N-[4-(1,1,1,3,3,3-Hexafluoro-2-hydroxypropan-2-yl)phenyl]-2-[(3S)-3-hydroxybutanoyl]-5-(methylsulfonyl)-2,3-dihydro-1H-isoindole-1-carboxamide]: the IC50 was 79.4 nM.
With `COC1(C(=O)N2Cc3cc(S(C)(=O)=O)ccc3C2C(=O)Nc2ccc(C(O)(C(F)(F)F)C(F)(F)F)cc2)CCCC1` (centres unmarked) [Example 434], the IC50 was 25.1 nM.
For `CC(=O)N1Cc2cc(S(C)(=O)=O)ccc2C1C(=O)Nc1ccc(C(O)(C(F)(F)F)C(F)(F)F)c(F)c1` (centres unmarked) [Example 435, 2-Acetyl-N-[3-fluoro-4-(1,1,1,3,3,3-hexafluoro-2-hydroxypropan-2-yl)phenyl]-5-(methylsulfonyl)-2,3-dihydro-1H-isoindole-1-carboxamide], the IC50 is 20 nM.
On to `CS(=O)(=O)c1ccc2c(c1)CN(C(=O)C1(C#N)CC1)C2C(=O)Nc1ccc(C(O)(C(F)(F)F)C(F)(F)F)cc1F` (centres unmarked) [Example 436, 2-[(1-Cyanocyclopropyl)carbonyl]-N-[2-fluoro-4-(1,1,1,3,3,3-hexafluoro-2-hydroxypropan-2-yl)phenyl]-5-(methylsulfonyl)-2,3-dihydro-1H-isoindole-1-carboxamide], for which the IC50 was 15.8 nM.
For the compound `CC(=O)N1Cc2cc(S(C)(=O)=O)ccc2C1C(=O)Nc1ccc(C(O)(C(F)(F)F)C(F)(F)F)cc1F` (centres unmarked) [Example 437, 2-Acetyl-N-[2-fluoro-4-(1,1,1,3,3,3-hexafluoro-2-hydroxypropan-2-yl)phenyl]-5-(methylsulfonyl)-2,3-dihydro-1H-isoindole-1-carboxamide], the IC50 was 20 nM.
Consider `CS(=O)(=O)c1ccc2c(c1)CN(C(=O)C1(C#N)CC1)C2C(=O)Nc1ccc(C(O)(C(F)(F)F)C(F)(F)F)c(F)c1` (centres unmarked) [Example 439, 2-[(1-Cyanocyclopropyl)carbonyl]-N-[3-fluoro-4-(1,1,1,3,3,3-hexafluoro-2-hydroxypropan-2-yl)phenyl]-5-(methylsulfonyl)-2,3-dihydro-1H-isoindole-1-carboxamide], for which the IC50 was 25.1 nM.
`COC1(C(=O)N2Cc3cc(S(C)(=O)=O)ccc3C2C(=O)Nc2ccc(C(O)(C(F)(F)F)C(F)(F)F)c(F)c2)CC1` (centres unmarked) [Example 440, N-[3-Fluoro-4-(1,1,1,3,3,3-hexafluoro-2-hydroxypropan-2-yl)phenyl]-2-[(1-methoxycyclopropyl)carbonyl]-5-(methylsulfonyl)-2,3-dihydro-1H-isoindole-1-carboxamide]: the IC50 is 31.6 nM.
Consider `COC1(C(=O)N2Cc3cc(S(C)(=O)=O)ccc3C2C(=O)Nc2ccc(C(O)(C(F)(F)F)C(F)(F)F)cc2F)CC1` (centres unmarked) [Example 441, N-[2-Fluoro-4-(1,1,1,3,3,3-hexafluoro-2-hydroxypropan-2-yl)phenyl]-2-[(1-methoxycyclopropyl)carbonyl]-5-(methylsulfonyl)-2,3-dihydro-1H-isoindole-1-carboxamide], for which the IC50 was 25.1 nM.
Same read-out and setting: for `CS(=O)(=O)c1ccc2c(c1)CN(C=O)C2C(=O)Nc1ccc(C(O)(C(F)(F)F)C(F)(F)F)cc1F` (centres unmarked) [Example 442] the value was 50.1 nM.
In the case of `CC1(C(=O)N2Cc3cc(S(C)(=O)=O)ccc3C2C(=O)Nc2ccc(C(O)(C(F)(F)F)C(F)(F)F)cc2)COC1` (centres unmarked) [Example 443], the IC50 was 100 nM.
Regarding `CS(=O)(=O)c1ccc2c(c1)CN(C(=O)C1COC1)C2C(=O)Nc1ccc(C(O)(C(F)(F)F)C(F)(F)F)cc1` (centres unmarked) [Example 444, N-[4-(1,1,1,3,3,3-Hexafluoro-2-hydroxypropan-2-yl)phenyl]-5-(methylsulfonyl)-2-(oxetan-3-ylcarbonyl)-2,3-dihydro-1H-isoindole-1-carboxamide], the IC50 is 63.1 nM.
On the same count and under the same terms, as for `CS(=O)(=O)c1ccc2c(c1)CN(C(=O)C1(F)CC1)C2C(=O)Nc1ccc(C(O)(C(F)(F)F)C(F)(F)F)cc1` (centres unmarked) [Example 446, 2-[(1-Fluorocyclopropyl)carbonyl]-N-[4-(1,1,1,3,3,3-hexafluoro-2-hydroxypropan-2-yl)phenyl]-5-(methylsulfonyl)-2,3-dihydro-1H-isoindole-1-carboxamide], the figure is 31.6 nM; as for `CCC(OC)C(=O)N1Cc2cc(S(C)(=O)=O)ccc2C1C(=O)Nc1ccc(C(O)(C(F)(F)F)C(F)(F)F)cc1` (centres unmarked) [Example 447, N-[4-(1,1,1,3,3,3-Hexafluoro-2-hydroxypropan-2-yl)phenyl]-2-(2-methoxybutanoyl)-5-(methylsulfonyl)-2,3-dihydro-1H-isoindole-1-carboxamide], 50.1 nM; as for `CCNC(=O)N1Cc2cc(S(C)(=O)=O)ccc2C1C(=O)Nc1ccc(C(O)(C(F)(F)F)C(F)(F)F)cc1` (centres unmarked) [Example 454, N^2-Ethyl-N^1-[4-(1,1,1,3,3,3-hexafluoro-2-hydroxypropan-2-yl)phenyl]-5-(methylsulfonyl)-1,3-dihydro-2H-isoindole-1,2-dicarboxamide], 39.8 nM.
As for `CS(=O)(=O)c1ccc2c(c1)CN(C(N)=O)C2C(=O)Nc1ccc(C(O)(C(F)(F)F)C(F)(F)F)cc1` (centres unmarked) [Example 455, N^1-[4-(1,1,1,3,3,3-Hexafluoro-2-hydroxypropan-2-yl)phenyl]-5-(methylsulfonyl)-1,3-dihydro-2H-isoindole-1,2-dicarboxamide], the IC50 is 100 nM.

The values above are taken from patent publication US10988445B2 (AstraZeneca AB, priority 2015, dated 2021).
